Experimental data as given in patent US20150105252A1, “SUBSTITUTED PYRAZOLES AS HERBICIDES” (E I DU PONT DE NEMOURS AND COMPANY, priority 2013, published 2015).

Assays:
Assay in all cases: Test C postemergence
chickweed = type: in vivo, Stellaria media; conditions: for Plant response rating (scale of 0 to 100 where 0 is no effect and 100 is complete control), Chickweed: Postemergence, 31 g ai/ha, visually evaluated after 13 to 15 days; for Chickweed plant response rating / Plant response rating, Chickweed: postemergence; for Chickweed plant response rating: 62 g ai/ha, scale 0 to 100
In short: (§1)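 Scores of 0 (no effect) to 100 (complete control) were assigned by eye after 13–15 days, comparing treated pots with controls. Soil-applied (preemergence) treatments went onto seeds in loam and sand; foliar (postemergence) treatments onto 1- to 4-leaf plants in peat medium.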

foxtail, giant = type: in vivo, Setaria faberii; conditions: for Plant response rating (scale of 0 to 100 where 0 is no effect and 100 is complete control), Foxtail, Giant: Postemergence, 31 g ai/ha, visually evaluated after 13 to 15 days; for Foxtail, Giant plant response rating / Plant response rating, Foxtail, Giant: postemergence; for Foxtail, Giant plant response rating: 62 g ai/ha, scale 0 to 100
Text: (§2) Seeds of plant species selected from blackgrass (Alopecurus myosuroides), ryegrass, Italian (Italian ryegrass, Lolium multiflorum), wheat (winter wheat, Triticum aestivum), galium (catchweed bedstraw, Galium aparine), corn (Zea mays), crabgrass, large (large crabgrass, Digitaria sanguinalis), foxtail, giant (giant foxtail, Setaria faberii), johnsongrass (Sorghum halepense), lambsquarters (Chenopodium album), morningglory (Ipomoea coccinea), nutsedge, yellow (yellow nutsedge, Cyperus esculentus), pigweed (redroot pigweed, Amaranthus retroflexus), ragweed (common ragweed, Ambrosia elation), soybean (Glycine max), barnyardgrass (Echinochloa crus-galli), oilseed rape (Brassica napus), waterhemp (common waterhemp, Amaranthus rudis), oat, wild (wild oat, Avena fatua), kochia (Kochia scoparia), Surinam grass (Brachiaria decumbens), foxtail, green (green foxtail, Setaria viridis), goosegrass (Eleusine indica), bromegrass, downy (downy bromegrass, Bromus tectorum), nightshade (eastern black nightshade, Solanum ptycanthum), cocklebur (common cocklebur, Xanthium strumarium), cupgrass, woolly (woolly cupgrass, Eriochloa villosa), bermudagrass (Cynodon dactylon), sunflower, (common oilseed sunflower, Helianthus annuus), Russian thistle (Salsola kali), and velvetleaf (Abutilon theophrasti) were planted into a blend of loam soil and sand and treated preemergence with test chemicals formulated in a non-phytotoxic solvent mixture which included a surfactant.
(§3) At the same time, plants selected from these crop and weed species and also chickweed (common chickweed, Stellaria media), canarygrass (littleseed canarygrass, Phalaris minor), and deadnettle (henbit deadnettle, Lamium amplexicaule), were planted in pots containing Redi-Earth® planting medium (Scotts Company, 14111 Scottslawn Road, Marysville, Ohio 43041) comprising spaghnum peat moss, vermiculite, wetting agent and starter nutrients and treated with postemergence applications of test chemicals formulated in the same manner. Plants ranged in height from 2 to 18 cm (1- to 4-leaf stage) for postemergence treatments. Treated plants and controls were maintained in a greenhouse for 13 to 15 days, after which time all species were compared to controls and visually evaluated. Plant response ratings, summarized in Table C, are based on a scale of 0 to 100 where 0 is no effect and 100 is complete control. A dash (-) response means no test result.

velvetleaf = type: in vivo, Abutilon theophrasti; conditions: postemergence; for Plant response rating, Velvetleaf: 250 g ai/ha, scale 0 to 100 (0 no effect, 100 complete control); for Velvetleaf plant response rating: scale 0 to 100
Text: as §2, §3

waterhemp = type: in vivo, Amaranthus rudis; conditions: postemergence, 250 g ai/ha; scale 0 to 100 (0 no effect, 100 complete control)
Text: as §2, §3

ryegrass, Italian = type: in vivo, Lolium multiflorum; conditions: postemergence
In short: as §1

ragweed = type: in vivo, Ambrosia elation; conditions: postemergence
In short: as §1

oat, wild = type: in vivo, Avena fatua; conditions: for Plant response rating (scale of 0 to 100 where 0 is no effect and 100 is complete control), Oat, Wild: Postemergence, 31 g ai/ha, visually evaluated after 13 to 15 days; for Oat, Wild plant response rating / Plant response rating, Oat, Wild: postemergence; for Oat, Wild plant response rating: 62 g ai/ha, scale 0 to 100
In short: as §1

galium = type: in vivo, Galium aparine; conditions: for Plant response rating (scale of 0 to 100 where 0 is no effect and 100 is complete control), Galium: Postemergence, 31 g ai/ha, visually evaluated after 13 to 15 days; for Galium plant response rating / Plant response rating, Galium: postemergence; for Galium plant response rating: 62 g ai/ha, scale 0 to 100
Text: as §2, §3

lambsquarters = type: in vivo, Chenopodium album; conditions: for Plant response rating (scale of 0 to 100 where 0 is no effect and 100 is complete control), Lambsquarters: Postemergence, 31 g ai/ha, visually evaluated after 13 to 15 days; for Lambsquarters plant response rating / Plant response rating, Lambsquarters: postemergence; for Lambsquarters plant response rating: 62 g ai/ha, scale 0 to 100
Text: as §2, §3

morningglory = type: in vivo, Ipomoea coccinea; conditions: for Plant response rating (scale of 0 to 100 where 0 is no effect and 100 is complete control), Morningglory: Postemergence, 31 g ai/ha, visually evaluated after 13 to 15 days; for Morningglory plant response rating / Plant response rating, Morningglory: postemergence; for Morningglory plant response rating: 62 g ai/ha, scale 0 to 100
In short: as §1

kochia = type: in vivo, Kochia scoparia; conditions: for Plant response rating (scale of 0 to 100 where 0 is no effect and 100 is complete control), Kochia: Postemergence, 31 g ai/ha, visually evaluated after 13 to 15 days; for Kochia plant response rating / Plant response rating, Kochia: postemergence; for Kochia plant response rating: 62 g ai/ha, scale 0 to 100
Text: as §2, §3

nutsedge, yellow = type: in vivo, Cyperus esculentus; conditions: for Plant response rating (scale of 0 to 100 where 0 is no effect and 100 is complete control), Nutsedge, Yellow: Postemergence, 31 g ai/ha, visually evaluated after 13 to 15 days; for Nutsedge, Yellow plant response rating / Plant response rating, Nutsedge, Yellow: postemergence; for Nutsedge, Yellow plant response rating: 62 g ai/ha, scale 0 to 100
Text: as §2, §3

soybean = type: in vivo, Glycine max; conditions: postemergence; for Plant response rating, Soybean: 250 g ai/ha, scale 0 to 100 (0 no effect, 100 complete control); for Soybean plant response rating: 125 g ai/ha, scale 0 to 100, 0 no effect, 100 complete control
Text: as §2, §3

pigweed = type: in vivo, Amaranthus retroflexus; conditions: postemergence; for Pigweed plant response rating: 62 g ai/ha, scale 0 to 100
In short: as §1

barnyardgrass = type: in vivo, Echinochloa crus-galli; conditions: for Plant response rating (scale of 0 to 100 where 0 is no effect and 100 is complete control), Barnyardgrass: Postemergence, 31 g ai/ha, visually evaluated after 13 to 15 days; for Barnyardgrass plant response rating / Plant response rating, Barnyardgrass: postemergence; for Barnyardgrass plant response rating: 62 g ai/ha, scale 0 to 100
In short: as §1

[1] = 250 g ai/ha, scale 0 to 100 (0 no effect, 100 complete control)
[2] = 125 g ai/ha, scale 0 to 100, 0 no effect, 100 complete control

Cc1cc(C(=O)NC(C)C)nn1Cc1ccnc(C(F)(F)F)c1 [Compound 197]
Plant response rating (scale of 0 to 100 where 0 is no effect and 100 is complete control), Chickweed (chickweed): 50
Chickweed plant response rating (chickweed): 55
Plant response rating, Chickweed (chickweed; [1]): 80
Plant response rating, Chickweed (chickweed; [2]): 60
Plant response rating (scale of 0 to 100 where 0 is no effect and 100 is complete control), Foxtail, Giant (foxtail, giant): 0
Foxtail, Giant plant response rating (foxtail, giant): 0
Plant response rating, Foxtail, Giant (foxtail, giant; [1]): 10
Plant response rating, Foxtail, Giant (foxtail, giant; [2]): 5
Plant response rating, Velvetleaf (velvetleaf): 40
Velvetleaf plant response rating (velvetleaf): 40
Plant response rating, Waterhemp (waterhemp): 55
Plant response rating, Ryegrass, Italian (ryegrass, Italian; [1]): 5
Plant response rating, Ryegrass, Italian (ryegrass, Italian; [2]): 0
Plant response rating, Ragweed (ragweed; [1]): 55
Plant response rating, Ragweed (ragweed; [2]): 40
Plant response rating (scale of 0 to 100 where 0 is no effect and 100 is complete control), Oat, Wild (oat, wild): 0
Oat, Wild plant response rating (oat, wild): 0
Plant response rating, Oat, Wild (oat, wild; [1]): 5
Plant response rating, Oat, Wild (oat, wild; [2]): 5
Plant response rating (scale of 0 to 100 where 0 is no effect and 100 is complete control), Galium (galium): 40
Galium plant response rating (galium): 50
Plant response rating, Galium (galium; [1]): 85
Plant response rating, Galium (galium; [2]): 50
Plant response rating (scale of 0 to 100 where 0 is no effect and 100 is complete control), Lambsquarters (lambsquarters): 55
Lambsquarters plant response rating (lambsquarters): 55
Plant response rating, Lambsquarters (lambsquarters; [1]): 85
Plant response rating, Lambsquarters (lambsquarters; [2]): 60
Plant response rating (scale of 0 to 100 where 0 is no effect and 100 is complete control), Morningglory (morningglory): 75
Morningglory plant response rating (morningglory): 75
Plant response rating, Morningglory (morningglory; [1]): 98
Plant response rating, Morningglory (morningglory; [2]): 65
Plant response rating (scale of 0 to 100 where 0 is no effect and 100 is complete control), Kochia (kochia): 40
Kochia plant response rating (kochia): 60
Plant response rating, Kochia (kochia; [1]): 90
Plant response rating, Kochia (kochia; [2]): 85
Plant response rating (scale of 0 to 100 where 0 is no effect and 100 is complete control), Nutsedge, Yellow (nutsedge, yellow): 0
Nutsedge, Yellow plant response rating (nutsedge, yellow): 5
Plant response rating, Nutsedge, Yellow (nutsedge, yellow; [1]): 5
Plant response rating, Nutsedge, Yellow (nutsedge, yellow; [2]): 10
Plant response rating, Soybean (soybean): 95
Soybean plant response rating (soybean): 90
Pigweed plant response rating (pigweed): 60
Plant response rating, Pigweed (pigweed; [1]): 70
Plant response rating, Pigweed (pigweed; [2]): 65
Plant response rating (scale of 0 to 100 where 0 is no effect and 100 is complete control), Barnyardgrass (barnyardgrass): 0
Barnyardgrass plant response rating (barnyardgrass): 0
Plant response rating, Barnyardgrass (barnyardgrass; [1]): 10
Plant response rating, Barnyardgrass (barnyardgrass; [2]): 5

CCCNC(=O)c1cc(CCC)n(Cc2cc(C(F)(F)F)nn2C)n1 [Compound 198]
Plant response rating (scale of 0 to 100 where 0 is no effect and 100 is complete control), Chickweed (chickweed): 70
Chickweed plant response rating (chickweed): 70
Plant response rating, Chickweed (chickweed; [1]): 80
Plant response rating, Chickweed (chickweed; [2]): 80
Plant response rating (scale of 0 to 100 where 0 is no effect and 100 is complete control), Foxtail, Giant (foxtail, giant): 10
Foxtail, Giant plant response rating (foxtail, giant): 10
Plant response rating, Foxtail, Giant (foxtail, giant; [1]): 55
Plant response rating, Foxtail, Giant (foxtail, giant; [2]): 15
Plant response rating, Velvetleaf (velvetleaf): 50
Velvetleaf plant response rating (velvetleaf): 40
Plant response rating, Waterhemp (waterhemp): 90
Plant response rating, Ryegrass, Italian (ryegrass, Italian; [1]): 5
Plant response rating, Ryegrass, Italian (ryegrass, Italian; [2]): 5
Plant response rating, Ragweed (ragweed; [1]): 80
Plant response rating, Ragweed (ragweed; [2]): 55
Plant response rating (scale of 0 to 100 where 0 is no effect and 100 is complete control), Oat, Wild (oat, wild): 10
Oat, Wild plant response rating (oat, wild): 10
Plant response rating, Oat, Wild (oat, wild; [1]): 45
Plant response rating, Oat, Wild (oat, wild; [2]): 20
Plant response rating (scale of 0 to 100 where 0 is no effect and 100 is complete control), Galium (galium): 50
Galium plant response rating (galium): 85
Plant response rating, Galium (galium; [1]): 90
Plant response rating, Galium (galium; [2]): 85
Plant response rating (scale of 0 to 100 where 0 is no effect and 100 is complete control), Lambsquarters (lambsquarters): 20
Lambsquarters plant response rating (lambsquarters): 50
Plant response rating, Lambsquarters (lambsquarters; [1]): 85
Plant response rating, Lambsquarters (lambsquarters; [2]): 75
Plant response rating (scale of 0 to 100 where 0 is no effect and 100 is complete control), Morningglory (morningglory): 95
Morningglory plant response rating (morningglory): 60
Plant response rating, Morningglory (morningglory; [1]): 98
Plant response rating, Morningglory (morningglory; [2]): 98
Plant response rating (scale of 0 to 100 where 0 is no effect and 100 is complete control), Kochia (kochia): 80
Kochia plant response rating (kochia): 80
Plant response rating, Kochia (kochia; [1]): 90
Plant response rating, Kochia (kochia; [2]): 85
Plant response rating (scale of 0 to 100 where 0 is no effect and 100 is complete control), Nutsedge, Yellow (nutsedge, yellow): 5
Nutsedge, Yellow plant response rating (nutsedge, yellow): 10
Plant response rating, Nutsedge, Yellow (nutsedge, yellow; [1]): 5
Plant response rating, Nutsedge, Yellow (nutsedge, yellow; [2]): 5
Plant response rating, Soybean (soybean): 95
Soybean plant response rating (soybean): 95
Pigweed plant response rating (pigweed): 60
Plant response rating, Pigweed (pigweed; [1]): 90
Plant response rating, Pigweed (pigweed; [2]): 80
Plant response rating (scale of 0 to 100 where 0 is no effect and 100 is complete control), Barnyardgrass (barnyardgrass): 5
Barnyardgrass plant response rating (barnyardgrass): 15
Plant response rating, Barnyardgrass (barnyardgrass; [1]): 35
Plant response rating, Barnyardgrass (barnyardgrass; [2]): 15
